In patent US8828928B2, “Amphiphilic peptides and peptide particles” (President and Fellows of Harvard College, priority 2011, dated 2014):
Values belong to the compound of their own block, whether it stands above or below them.

What was measured:
[1] = Solubility of the peptides in water and organic solvents; type: physicochemical
[2] = system: CHO cells; experiment: Release of encapsulated Flutax-2 into the cytosol of CHO cells; type: cell-based, Chinese hamster; details: 24 hours, 0.67 μM Flutax-2
Protocol: To assess whether binding and internalization of PNPs can result in the selective import of small molecule cargo, the release of encapsulated Flutax-2 into cells was analyzed 24 hours post addition of PNPFlutax-2^Tfn-AF568 into the cells (FIGS. 13A-13I). Flutax-2 is an Oregon Green (OG) modified derivative of paclitaxel(19), a mitotic inhibitor applied in cancer therapy (20). Unlike its unlabeled form, Flutax-2 is charged and water-soluble at the applied concentration and does consequently not permeate cell membranes. Thus, it was used a model compound to investigate efficiency and specificity of small molecule delivery by PNPs to the cytosol. […] Flutax-2 emission in the cytosol was averaged to quantify the amount of delivered compound into the cells.
CHO cell lines were grown in F12:DMEM 1:1 (Cellgro, 10-090) plus 10% fetal bovine serum (Gibco). […] Samples were fixed with 3% paraformaldehyde (Sigma, P6148) in PBS, mounted on glass slides using fluorescent mounting medium (Dako, 53023) and analyzed within 24 hours.
Fixed cells were analyzed on a Nikon Ti inverted microscope equipped with 60× Plan Apo NA 1.4 objective lens. DAPI fluorescence was excited with a 360/40 filter and collected with a 460/50 emission filter. Oregon Green fluorescence was excited with a 360/40 and collected with a 480/40 emission filter. […]

[3] = Particle diameter and corona thickness by negative staining TEM; type: physicochemical
Protocol: PNPs were assembled by mixing stock solutions of CD3ac, Tfn-AF568 and Flutax-2 to yield final concentrations of 123 μM CD3ac, 6 μM Flutax-2 and 10 μg/mL Tfn-AF568 in H2O:EtOH (1:1, v/v). Emulsification was induced by a first dilution step (1:1, H2O) followed by an equilibration period of 15 minutes before the ethanol content was further reduced to […] by the second dilution step (1:1, H2O). 50 μL aliquots of the resulting suspension were applied to 24-well sitting drop crystallization plates (Hampton Research, Cryschem) and counter-evaporated 3 times against 1 mL H2O during six hours.
PNP samples were prepared as described above. 5 μL of PNPs suspended in H2O were applied to a carbon film coated copper grid (400 square mesh, Electron Microscopy Sciences) and dried. The sample was stained with 10 μL 1% uranyl acetate during one minute. Excess stain was removed with a filter paper and subsequently applied to a Tecnai G^2 Spirit BioTWIN.

[4] = Size of CD3ac beads by SEM and dynamic light scattering; type: physicochemical; details: SEM and DLS; initially dissolved CD3ac 123×10^−6 M
Protocol: Scanning electron microscopy (SEM) was carried out on a Hitachi S-4800. SEM sample holders were cooled to −196° C. before a drop of the bead suspension was directly applied to the cold metal surface. The frozen sample on the plate was subsequently lyophilized, sputtered with platinum and analyzed.
Dynamic light scattering was measured on an ALV/CGS-8F platform based goniometer system equipped with an ALV/-5000/E correlator and an Argon-Ion laser with a wavelength of […] (35 mW) at scattering angles between 30° and 150°. An ALV-5000/E correlator calculates the photon intensity autocorrelation function g2(t). All experiments were performed at T=293 K and evaluated by second order cumulant fit (considering previously determined spherical particle shape by SEM). Polydispersities were determined by the contin-algorithm at all angles and never exceeded 0.11. […] For both angular and concentration dependence, a hydrodynamic radius was calculated from the Stokes-formula
[formula] where rh is the hydrodynamic radius of spherical particles, D is the diffusion constant, kB is the Boltzmann constant, T is the absolute temperature and is the viscosity of water. A graph of 1/rh versus angle (concentration) was plotted and the hydrodynamic radius (rh0) was calculated by extrapolating both concentration and angle measurements to zero. […]

[5] = Estimating bead volume and density of CD3ac precipitates; type: physicochemical
Protocol: In order to estimate the density of CD3ac precipitates, beads (307.5×10^−6 M CD3ac starting concentration) were prepared large enough to exceed the diffraction limit of visible light. A low concentration of RB (10×10^−6 M) was co-precipitated to allow an estimate of the bead diameter by confocal fluorescence microscopy (1.35 μm) and facilitate counting on a hemacytometer (Hausser Scientific). An average of 72 beads were counted in an observed cell volume of 250,000 μm^3 that equals a bead volume fraction of 3.71×10^−4. A solution of 50 μL 307.5×10^−6M CD3ac thus contains a total bead volume of […] and the density of CD3ac can be determined (ρCD3ac≈1.35 g/cm^3). The logarithmic partition coefficient of RB in an aqueous solution of CD3ac beads was calculated according to […]

[6] = Stability of nucleic acid-containing peptide particles in water and at physiological salt strength; type: physicochemical
Source text: It should be noted that a mixture of CD3 peptides and nucleic acid molecules can self-assemble to form stable particles in pure water; however, they are generally not stable and dissolve, responding to increasing salt strengths and higher temperatures.
Accordingly, in some embodiments, a mixture of fully-acetylated amphiphilic peptides (e.g., CD3ac peptides), partially-acetylated or non-acetylated amphiphilic peptides (e.g., CD3 peptides) and nucleic acid molecules can be prepared to form stable peptide particles containing nucleic acid molecules (e.g., DNA or RNA including siRNA). […] It was determined that the presence of CD3ac peptides stabilizes ssDNA-containing peptide particles at physiological conditions. All the three components co-precipitated to form ssDNA-containing peptide particles that were stable at the corresponding salt strength.

Compound: CC(C)C[C@@H](NC(=O)[C@H](Cc1c[nH]c2ccccc12)NC(=O)[C@@H](CC(C)C)NC(=O)[C@H](Cc1c[nH]c2ccccc12)NC(=O)[C@@H](CC(C)C)NC(=O)[C@H](Cc1c[nH]c2ccccc12)NC(=O)[C@H](CCCCN)NC(=O)[C@H](CCCCN)NC(=O)[C@H](CCCCN)NC(=O)[C@@H](N)CCCCN)C(=O)N[C@@H](Cc1c[nH]c2ccccc12)C(N)=O (racemic) [CD4, H-LK-LK-LK-LK-LW-DL-LW-DL-LW-DL-LW-NH2]
solubility in water [1]: water soluble

Compound: Flutax-2
Flutax-2 emission in the cytosol [2]: could not be detected

Compound: CC(C)C[C@@H](NC(=O)[C@H](Cc1c[nH]c2ccccc12)NC(=O)[C@@H](CC(C)C)NC(=O)[C@H](Cc1c[nH]c2ccccc12)NC(=O)[C@@H](CC(C)C)NC(=O)[C@H](Cc1c[nH]c2ccccc12)NC(=O)[C@@H](N)CCCCN)C(=O)N[C@@H](Cc1c[nH]c2ccccc12)C(N)=O (racemic) [CD1, H-LK-LW-DL-LW-DL-LW-DL-LW-NH2]
solubility in water [1]: water soluble

Compound: CC(=O)NCCCC[C@H](NC(C)=O)C(=O)N[C@@H](CCCCNC(C)=O)C(=O)N[C@@H](CCCCNC(C)=O)C(=O)N[C@@H](Cc1c[nH]c2ccccc12)C(=O)N[C@H](CC(C)C)C(=O)N[C@@H](Cc1c[nH]c2ccccc12)C(=O)N[C@H](CC(C)C)C(=O)N[C@@H](Cc1c[nH]c2ccccc12)C(=O)N[C@H](CC(C)C)C(=O)N[C@@H](Cc1c[nH]c2ccccc12)C(N)=O (racemic) [CD3ac, Ac-LK(Ac)-LK(Ac)-LK(Ac)-LW-DL-LW-DL-LW-DL-LW-NH2]
thickness of the protein corona [3]: 9.0+/−2.1 nm | average particle diameter ([3]; assembled in the absence of Tfn-AF568): 100 nm | average particle diameter ([3]; assembled in the presence of Tfn-AF568, excluding corona): 51 nm | particle radius [4]: about 260 nm | solubility in water [1]: insoluble | solubility in organic solvents ([1]; EtOH, iPrOH, DMSO, DMF, MeCN): readily dissolves | bead diameter ([5]; 307.5×10^−6 M CD3ac starting concentration, 10×10^−6 M RB, confocal fluorescence microscopy): 1.35 μm | density of CD3ac precipitates (ρCD3ac) ([5]; from bead count and bead volume fraction): ≈ 1.35 g/cm^3

More lines, now with the values ahead:

particle stability at increasing / physiological salt strength [6]: not stable | particle stability in pure water [6]: stable | solubility in water [1]: water soluble
Compound: CC(C)C[C@@H](NC(=O)[C@H](Cc1c[nH]c2ccccc12)NC(=O)[C@@H](CC(C)C)NC(=O)[C@H](Cc1c[nH]c2ccccc12)NC(=O)[C@@H](CC(C)C)NC(=O)[C@H](Cc1c[nH]c2ccccc12)NC(=O)[C@H](CCCCN)NC(=O)[C@H](CCCCN)NC(=O)[C@@H](N)CCCCN)C(=O)N[C@@H](Cc1c[nH]c2ccccc12)C(N)=O (racemic) [CD3, H-LK-LK-LK-LW-DL-LW-DL-LW-DL-LW-NH2]

solubility in water [1]: water soluble
Compound: CC(C)C[C@@H](NC(=O)[C@H](Cc1c[nH]c2ccccc12)NC(=O)[C@@H](CC(C)C)NC(=O)[C@H](Cc1c[nH]c2ccccc12)NC(=O)[C@@H](CC(C)C)NC(=O)[C@H](Cc1c[nH]c2ccccc12)NC(=O)[C@H](CCCCN)NC(=O)[C@@H](N)CCCCN)C(=O)N[C@@H](Cc1c[nH]c2ccccc12)C(N)=O (racemic) [CD2, H-LK-LK-LW-DL-LW-DL-LW-DL-LW-NH2]
